In patent US20030083375A1, “11Beta-fluoro 15beta-hydroxy PGF2alpha analogs as FP receptor antagonists” (priority 1997, published 2003):
Read-outs that look alike come from different tables or passages of the source.

Experiments:
FP receptor [1] = biological target: T1, FP receptor (Rattus norvegicus, UniProt P43118); experiment: Agonist stimulation of [3H]IPs production in A7r5 cells; format: cell-based
T1 construct: Two cell lines containing the FP receptor have been extensively characterized by this method; host or cells: A7r5 rat thoracic aorta smooth muscle cells
T1 sequence (P43118 whole entry): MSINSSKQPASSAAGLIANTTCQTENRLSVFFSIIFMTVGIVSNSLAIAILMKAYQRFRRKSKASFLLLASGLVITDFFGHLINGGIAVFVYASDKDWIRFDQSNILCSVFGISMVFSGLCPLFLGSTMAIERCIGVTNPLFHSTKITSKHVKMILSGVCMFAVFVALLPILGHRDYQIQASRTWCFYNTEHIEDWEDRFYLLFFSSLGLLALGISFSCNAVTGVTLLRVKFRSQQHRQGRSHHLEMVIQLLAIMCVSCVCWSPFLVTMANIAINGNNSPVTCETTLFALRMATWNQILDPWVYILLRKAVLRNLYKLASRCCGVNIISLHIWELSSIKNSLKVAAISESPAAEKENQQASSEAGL
Protocol: (§1) Confluent monolayer cultures of cells (in a standard 24-well tissue culture plate) expressing the FP receptor are exposed to [^3H]-myo-inositol (1.5 μCi in a volume of 0.5 ml DMEM culture medium supplemented with 2 mM L-glutamine and 10 μg/ml gentamicin sulfate) in the absence of serum, which causes net incorporation of the radioisotope into the phosphotidylinositol membrane lipids. After 24-32 hrs, the medium with the radioisotope is removed and the cells are rinsed once with DMEM/F-12 medium containing 10 mM LiCl (assay medium). Then 0.5 ml of assay medium is added to each well of cells, followed by addition of varying concentrations of an FP receptor agonist (or other test compound). Cells are exposed to the test agent for 30-120 min in a humidified incubator (95% air/5% CO2), maintained at 37° C. Then the assay medium is removed and 1 ml of 0.1 M formic acid is added to the cell monolayer to inactivate the phospholipase C release the radiolabelled products into the assay medium. The presence of LiCl during the agonist stimulation period inhibits phosphatases and permits the accumulation of radiolabelled inositol phosphates (IPs) which is measured by ion exchange chromatography.
The agonist-dependent production of IPs, which reflects the degree of receptor activation, is quantitatively measured for each well of cells in the 24-well plate by separating the negatively charged radiolabelled IPs from other minor radiolabelled species and free [^3H]-myo-inositol by anion exchange chromatography. […] These samples, i.e., the radiolabelled IPs formed by the cells in response to stimulation by an FP prostaglandin receptor agonist or other test agent, is then measured by scintillation spectrometry on a beta-counter.
The dependence of the level of the [^3H]IPs production on agonist concentration is analyzed by standard pharmacological methods to determine the potency (EC50 value) and efficacy (maximum response; Emax) of the FP receptor agonist relative to a standard FP receptor agonist such as fluprostenol. […]

FP receptor [2] = biological target: T1, FP receptor; experiment: Antagonism of fluprostenol-stimulated [3H]IPs production in A7r5 cells; format: cell-based
Protocol: as §1
The agonist-dependent production of IPs, which reflects the degree of receptor activation, is quantitatively measured for each well of cells in the 24-well plate by separating the negatively charged radiolabelled IPs from other minor radiolabelled species and free [^3H]-myo-inositol by anion exchange chromatography. This is accomplished by adding 0.9 ml of the cell lysate obtained as described above to a column packed with 1 ml of AG 1-X8 anion exchange resin in the formate form. The elution and separation of the radiolabelled IPs from the column consists of sequential additions to the column of: 1) 10 ml of water; 2) 8 ml of 50 mM ammonium formate; and 3) 4 ml of 1.2 M ammonium formate solution containing 0.1 M formic acid. The first two washes are discarded, and the third is collected in a scintillation vial, to which is added 15 ml of a water-accepting scintillation fluid. These samples, i.e., the radiolabelled IPs formed by the cells in response to stimulation by an FP prostaglandin receptor agonist or other test agent, is then measured by scintillation spectrometry on a beta-counter.
The dependence of the level of the [^3H]IPs production on agonist concentration is analyzed by standard pharmacological methods to determine the potency (EC50 value) and efficacy (maximum response; Emax) of the FP receptor agonist relative to a standard FP receptor agonist such as fluprostenol. […] The agonist stimulation is then continued for the standard time (30-120 min), after which the procedure for quenching the reaction, separating the [^3H]IPs, and anion exchange chromatography is identical to the procedure described above. A compound is considered to be an antagonist in this protocol if it inhibits the agonist-stimulated [^3H]IPs production relative to the production measured in the control experiment (performed in parallel), in which the solvent is substituted for the antagonist.
Two different antagonist protocols are employed: 1) the antagonist concentration is varied while holding the agonist concentration fixed at a concentration approximately 10 times the agonist EC50 value and 2) the antagonist concentration is fixed in a given experiment, with the agonist concentration varied, and several such experiments, each with a different, fixed antagonist concentration, are performed. […] Overall, the Ki and Kb values are synonymous and represent the antagonist potency of the antagonist at equilibrium.

human ocular FP receptor = biological target: T2, human ocular FP receptor (Homo sapiens, UniProt P43088); experiment: Antagonism of fluprostenol-induced [3H]IPs production in HEK-293 cells expressing recombinant human ocular FP receptor; format: cell-based
T2 construct: expressed in transfected cells; host or cells: HEK-293 (human embryonic kidney)
T2 sequence (P43088 whole entry): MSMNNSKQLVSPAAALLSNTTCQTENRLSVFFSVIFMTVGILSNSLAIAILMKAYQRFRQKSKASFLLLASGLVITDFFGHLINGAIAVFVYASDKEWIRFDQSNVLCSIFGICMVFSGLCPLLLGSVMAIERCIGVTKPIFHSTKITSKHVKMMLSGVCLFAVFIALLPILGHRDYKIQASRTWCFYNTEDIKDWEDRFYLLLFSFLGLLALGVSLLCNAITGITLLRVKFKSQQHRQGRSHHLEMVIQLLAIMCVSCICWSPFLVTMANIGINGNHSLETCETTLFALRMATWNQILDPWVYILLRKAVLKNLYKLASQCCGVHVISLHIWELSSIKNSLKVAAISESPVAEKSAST
Protocol: as §1, with “Then the assay medium is removed and 1 ml of 0.1 M formic acid is added to the cell monolayer to inactivate the phospholipase C release the radiolabelled products into the assay medium.” left out
The agonist-dependent production of IPs, which reflects the degree of receptor activation, is quantitatively measured for each well of cells in the 24-well plate by separating the negatively charged radiolabelled IPs from other minor radiolabelled species and free [^3H]-myo-inositol by anion exchange chromatography. […]

[3] = biological target: FP prostaglandin receptor (Homo sapiens, UniProt P43088); experiment: Selectivity for the FP prostaglandin receptor compared to other classes of prostaglandin receptors
Sequence of FP prostaglandin receptor (P43088 whole entry): as above

## O=C(O)CCC/C=C\C[C@@H]1[C@@H](/C=C/[C@@H](O)COc2cccc(C(F)(F)F)c2)[C@H](O)C[C@@H]1O (racemic) [fluprostenol]
FP receptor [1]
  Agonist classification (maximum effect relative to full agonists): full agonist

## O=C(O)CCC/C=C\C[C@@H]1[C@@H](/C=C/[C@H](O)C2Cc3ccccc3C2)[C@@H](F)C[C@@H]1O [Compound III, (5Z,13E)-(9S,11S,15R)-9,15-Dihydroxy-11-fluoro-15-(2-indanyl)-16,17,18,19,20-pentanor-5,13-prostadienoic acid]
FP receptor [1]
  Agonist classification (maximum effect relative to full agonists): partial agonist
FP receptor [2]; Schild analysis, read-out: Kb, mol/L (potency as antagonist of the FP receptor)
  Kb: 250 nM
FP receptor [2]; fixed fluprostenol concentration about 10 times the agonist EC50, read-out: Ki (method of FIG. 2, antagonist concentration varied)
  Ki: 426 ± 63 nM
FP receptor [2]; fluprostenol agonist varied, fixed antagonist concentrations, n=4 experiments, read-out: Kb (Schild analysis)
  Kb: 285 ± 97 nM
FP receptor [2]; from Table 1
  Fold higher potency as FP receptor antagonist than phloretin: > 10 fold
FP receptor [2]; shift of fluprostenol dose-response curves, maximal effect unaltered
  Type of antagonism: competitive antagonist
Human ocular FP receptor
  Antagonism of fluprostenol-induced [3H]IPs production: behaved as an antagonist
[3]
  Selectivity for FP prostaglandin receptor versus other prostaglandin receptor classes: relatively good selectivity

## CCCCC[C@H](O)/C=C/[C@@H]1[C@@H](C/C=C\CCCC(=O)N(C)C)[C@@H](O)C[C@H]1O [PGF2α dimethyl amide, reference compound]
FP receptor [2]; Schild analysis
  Kb, mol/L (potency as antagonist of the FP receptor): Inactive

## CCCCC[C@H](O)/C=C/[C@@H]1[C@@H](C/C=C\CCCCN(C)C)[C@@H](O)C[C@H]1O [PGF2α dimethyl amine, reference compound]
FP receptor [2]; Schild analysis
  Kb, mol/L (potency as antagonist of the FP receptor): Inactive

## CCCCNC(=O)NS(=O)(=O)c1ccc(C)cc1 [Tolbutamide, reference compound]
FP receptor [2]; Schild analysis
  Kb, mol/L (potency as antagonist of the FP receptor): Inactive

## O=C(O)CCC/C=C\CC1C(O)CC(O)C1/C=C/C(O)COc1cccc(Cl)c1 (stereo not shown) [cloprostenol]
FP receptor [1]
  Agonist classification (maximum effect relative to full agonists): full agonist
